A short description of the assay: Agonist activity beta2-adrenergic receptor in rat ventricular myocytes assessed as cell contraction following electrical stimulation by optical edge tracking method using photodiode array.
Usually EC50 stands for the concentration needed to bring the measured effect to its halfway point. Regarding `CC[C@H](Cc1ccc(O)cc1)NC[C@H](O)c1cc(O)cc(O)c1`, the half-maximal effective concentration (EC50) is 8550 nM.
Consider `C[C@H](Cc1ccc2ccccc2c1)NC[C@H](O)c1cc(O)cc(O)c1`, for which the concentration for a half-maximal effect (EC50) is 133 nM.
In the case of `COc1ccc(C[C@@H](C)NC[C@H](O)c2cc(O)cc(O)c2)c2ccccc12`, the EC50 worked out at 16 nM.

Source of the values: BindingDB's records for doi:10.1016/j.bmc.2009.11.062 (Medical University of Lublin, 2010).
